# Assay results reported in patent publication US20250171461A1, “STIMULATOR OF INTERFERON GENES (STING) MODULATORS, AND COMPOSITIONS AND METHODS THEREOF” (Geode Therapeutics Inc., priority 2022, published 2025).
# Molecular target: T1, human HAQ STING isoform (hSTING HAQ) (Homo sapiens, UniProt Q86WV6, G230A/H232R/R293Q/R71H)
# T1 construct: THP1 cells express the naturally occurring human HAQ STING isoform (hSTING HAQ); host or cells: THP1
# Assay: IFN-β mRNA level in THP1 cells (qPCR, STING agonist cellular activity)
# Assay type: cell-based
# Details: compound at 3.6 μM, 2 hrs, IFNβ expression normalized against GAPDH by the 2^-ΔΔCT method, DMSO = 1.0
# Outline: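 THP1 cells were seeded at 9×10^5 per well, incubated overnight, then treated with compound at 3.6 μM final (0.1% DMSO control) for 2 hrs at 37 °C. IFN-β mRNA was measured by SYBR Green qPCR, normalised to GAPDH by the 2^−ΔΔCT method, in triplicate.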
# T1 sequence (Q86WV6 whole entry R71H/G230A/H232R/R293Q, canonical isoform): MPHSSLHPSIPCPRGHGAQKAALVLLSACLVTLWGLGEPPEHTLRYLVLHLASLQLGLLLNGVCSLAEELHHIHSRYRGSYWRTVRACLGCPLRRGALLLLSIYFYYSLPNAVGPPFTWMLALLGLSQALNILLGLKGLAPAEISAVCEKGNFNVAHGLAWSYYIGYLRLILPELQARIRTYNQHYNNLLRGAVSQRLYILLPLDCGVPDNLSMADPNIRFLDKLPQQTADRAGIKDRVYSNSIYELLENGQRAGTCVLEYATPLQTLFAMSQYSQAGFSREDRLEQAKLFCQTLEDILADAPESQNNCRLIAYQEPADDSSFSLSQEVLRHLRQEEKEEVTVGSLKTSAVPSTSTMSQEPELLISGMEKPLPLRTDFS
row,Structure (SMILES),Relative mRNA INFβ/GAPDH THP 1
1,"COc1cc(CN(Cc2cn3c4c(c(N5CCCCC5=O)c(F)cc4c2=O)OCC3C)[C@H]2CCCN(c3ccc(N)nc3)C2)ccn1 (stereo partly drawn) [Compound 60, 6-((((S)-1-(6-aminopyridin-3-yl)piperidin-3-yl)((2-methoxypyridin-4-yl)methyl)amino)methyl)-9-fluoro-3-methyl-10-(2-oxopiperidin-1-yl)-2H-[1,4]oxazino[2,3,4-ij]quinolin-7(3H)-one]",174.3
2,"COc1cc(CN(Cc2cn3c4c(c(N5CCCCC5=O)c(F)cc4c2=O)OCC3C)[C@H]2CCCN(c3ccc(N)nc3)C2)ccn1 (stereo partly drawn) [Compound 61, 6-((((S)-1-(6-aminopyridin-3-yl)piperidin-3-yl)((2-methoxypyridin-4-yl)methyl)amino)methyl)-9-fluoro-3-methyl-10-(2-oxopiperidin-1-yl)-2H-[1,4]oxazino[2,3,4-ij]quinolin-7(3H)-one]",0.7
3,"COc1cc(CN(Cc2cn3c4c(c(OCc5ccccc5)c(F)cc4c2=O)OCC3C)[C@H]2CCCN(c3ccc(N)nc3)C2)ccn1 (stereo partly drawn) [Compound 62, 6-((((S)-1-(6-aminopyridin-3-yl)piperidin-3-yl)((2-methoxypyridin-4-yl)methyl)amino)methyl)-10-(benzyloxy)-9-fluoro-3-methyl-2H-[1,4]oxazino[2,3,4-ij]quinolin-7(3H)-one]",915.2
4,"COc1cc(CN(Cc2cn3c4c(c(O)c(F)cc4c2=O)OCC3C)[C@H]2CCCN(c3ccc(N)nc3)C2)ccn1 (stereo partly drawn) [Compound 63, 6-((((S)-1-(6-aminopyridin-3-yl)piperidin-3-yl)((2-methoxypyridin-4-yl)methyl)amino)methyl)-9-fluoro-10-hydroxy-3-methyl-2H-[1,4]oxazino[2,3,4-ij]quinolin-7(3H)-one]",2.5
5,"COc1cc(CN(Cc2cn3c4c(c(-c5ccc(CCO)cn5)c(F)cc4c2=O)OCC3C)[C@H]2CCCN(c3ccc(N)nc3)C2)ccn1 (stereo partly drawn) [Compound 64, 6-((((S)-1-(6-aminopyridin-3-yl)piperidin-3-yl)((2-methoxypyridin-4-yl)methyl)amino)methyl)-9-fluoro-10-(5-(2-hydroxyethyl)pyridin-2-yl)-3-methyl-2H-[1,4]oxazino[2,3,4-ij]quinolin-7(3H)-one]",26.6
6,"COc1cc(CN(Cc2cn3c4c(c(F)c(F)cc4c2=O)OCC3)[C@H]2CCCN(c3ccc([N+](=O)[O-])nc3)C2)ccn1 [Compound 65, (S)-9,10-difluoro-6-((((2-methoxypyridin-4-yl)methyl)(1-(6-nitropyridin-3-yl)piperidin-3-yl)amino)methyl)-2,3-dihydro-7H-[1,4]oxazino[2,3,4-ij]quinolin-7-one]",7.4
7,"Nc1ccc(N2CCC[C@H](N(Cc3ccncc3)Cc3cn4c5c(c(F)c(F)cc5c3=O)OCC4)C2)cn1 [Compound 70, (S)-6-(((1-(6-aminopyridin-3-yl)piperidin-3-yl)(pyridin-4-ylmethyl)amino)methyl)-9,10-difluoro-2,3-dihydro-7H-[1,4]oxazino[2,3,4-ij]quinolin-7-one]",6236.9
8,"Cc1cc(CN(Cc2cn3c4c(c(F)c(F)cc4c2=O)OCC3)[C@H]2CCCN(c3ccc(N)nc3)C2)ccn1 [Compound 71, (S)-6-(((1-(6-aminopyridin-3-yl)piperidin-3-yl)((2-methylpyridin-4-yl)methyl)amino)methyl)-9,10-difluoro-2,3-dihydro-7H-[1,4]oxazino[2,3,4-ij]quinolin-7-one]",6763.7
9,"Nc1ccc(N2CCC[C@H](N(Cc3ccccc3)Cc3cn4c5c(c(F)c(F)cc5c3=O)OCC4)C2)cn1 [Compound 72, (S)-6-(((1-(6-aminopyridin-3-yl)piperidin-3-yl)(benzyl)amino)methyl)-9,10-difluoro-2,3-dihydro-7H-[1,4]oxazino[2,3,4-ij]quinolin-7-one]",31.9
10,"COc1ccc(CN(Cc2cn3c4c(c(F)c(F)cc4c2=O)OCC3)[C@H]2CCCN(c3ccc(N)nc3)C2)c(OC)c1 [Compound 73, (S)-6-(((1-(6-aminopyridin-3-yl)piperidin-3-yl)(2,4-dimethoxybenzyl)amino)methyl)-9,10-difluoro-2,3-dihydro-7H-[1,4]oxazino[2,3,4-ij]quinolin-7-one]",7.9
11,"Nc1ccc(N2CCC[C@H](N(Cc3ccc(C(F)(F)F)cc3F)Cc3cn4c5c(c(F)c(F)cc5c3=O)OCC4)C2)cn1 [Compound 74, (S)-6-(((1-(6-aminopyridin-3-yl)piperidin-3-yl)(2-fluoro-4-(trifluoromethyl)benzyl)amino)methyl)-9,10-difluoro-2,3-dihydro-7H-[1,4]oxazino[2,3,4-ij]quinolin-7-one]",1.4
12,"Nc1ccc(N2CCC[C@H](N(Cc3ccccn3)Cc3cn4c5c(c(F)c(F)cc5c3=O)OCC4)C2)cn1 [Compound 75, (S)-6-(((1-(6-aminopyridin-3-yl)piperidin-3-yl)(pyridin-2-ylmethyl)amino)methyl)-9,10-difluoro-2,3-dihydro-7H-[1,4]oxazino[2,3,4-ij]quinolin-7-one]",1.1
13,"Nc1ccc(N2CCC[C@H](N(Cc3ccc(Cl)nc3)Cc3cn4c5c(c(F)c(F)cc5c3=O)OCC4)C2)cn1 [Compound 76, (S)-6-(((1-(6-aminopyridin-3-yl)piperidin-3-yl)((6-chloropyridin-3-yl)methyl)amino)methyl)-9,10-difluoro-2,3-dihydro-7H-[1,4]oxazino[2,3,4-ij]quinolin-7-one]",0.8
14,"Nc1ccc(N2CCC[C@H](N(Cc3ccccc3F)Cc3cn4c5c(c(F)c(F)cc5c3=O)OCC4)C2)cn1 [Compound 77, (S)-6-(((1-(6-aminopyridin-3-yl)piperidin-3-yl)(2-fluorobenzyl)amino)methyl)-9,10-difluoro-2,3-dihydro-7H-[1,4]oxazino[2,3,4-ij]quinolin-7-one]",1.3
15,"Cc1cc(CN(Cc2cn3c4c(c(F)c(F)cc4c2=O)OCC3)[C@H]2CCCN(c3ccc(N)nc3)C2)cc(C)c1F [Compound 78, (S)-6-(((1-(6-aminopyridin-3-yl)piperidin-3-yl)(4-fluoro-3,5-dimethylbenzyl)amino)methyl)-9,10-difluoro-2,3-dihydro-7H-[1,4]oxazino[2,3,4-ij]quinolin-7-one]",1.2
16,"COc1cc(CN(Cc2cn3c4c(c(F)c(F)cc4c2=O)OCC3)[C@H]2CCCN(c3ccc(C)nc3)C2)ccn1 [Compound 80, (S)-9,10-difluoro-6-((((2-methoxypyridin-4-yl)methyl)(1-(6-methylpyridin-3-yl)piperidin-3-yl)amino)methyl)-2,3-dihydro-7H-[1,4]oxazino[2,3,4-ij]quinolin-7-one]",6820.3
17,"Cc1cc(CN(Cc2cn3c4c(c(F)c(F)cc4c2=O)OCC3)[C@H]2CCCN(c3cccnc3)C2)ccn1 [Compound 81, (S)-9,10-difluoro-6-((((2-methylpyridin-4-yl)methyl)(1-(pyridin-3-yl)piperidin-3-yl)amino)methyl)-2,3-dihydro-7H-[1,4]oxazino[2,3,4-ij]quinolin-7-one]",5719.5

# More lines, now with the values ahead:
row,Relative mRNA INFβ/GAPDH THP 1,Structure (SMILES)
1,335.5,"Nc1ccc(N2CCC[C@H](N(Cc3ccncc3Cl)Cc3cn4c5c(c(F)c(F)cc5c3=O)OCC4)C2)cn1 [Compound 79, (S)-6-(((1-(6-aminopyridin-3-yl)piperidin-3-yl)((3-chloropyridin-4-yl)methyl)amino)methyl)-9,10-difluoro-2,3-dihydro-7H-[1,4]oxazino[2,3,4-ij]quinolin-7-one]"
2,1.2,"Cc1cc(CN(Cc2cn3c4c(c(F)c(F)cc4c2=O)OCC3)[C@H]2CCCN(c3cnccn3)C2)ccn1 [Compound 83, (S)-9,10-difluoro-6-((((2-methylpyridin-4-yl)methyl)(1-(pyrazin-2-yl)piperidin-3-yl)amino)methyl)-2,3-dihydro-7H-[1,4]oxazino[2,3,4-ij]quinolin-7-one]"
3,0.9,"COc1cc(CN(Cc2cn3c4c(c(F)c(F)cc4c2=O)OCC3)[C@H]2CCCN(c3cnccn3)C2)ccn1 [Compound 84, (S)-9,10-difluoro-6-((((2-methoxypyridin-4-yl)methyl)(1-(pyrazin-2-yl)piperidin-3-yl)amino)methyl)-2,3-dihydro-7H-[1,4]oxazino[2,3,4-ij]quinolin-7-one]"
4,0.9,"O=c1c(CN(Cc2ccncn2)[C@H]2CCCN(c3cnccn3)C2)cn2c3c(c(F)c(F)cc13)OCC2 [Compound 85, (S)-9,10-difluoro-6-(((1-(pyrazin-2-yl)piperidin-3-yl)(pyrimidin-4-ylmethyl)amino)methyl)-2,3-dihydro-7H-[1,4]oxazino[2,3,4-ij]quinolin-7-one]"
5,1.1,"COc1cnccc1CN(Cc1cn2c3c(c(F)c(F)cc3c1=O)OCC2)[C@H]1CCCN(c2cnccn2)C1 [Compound 86, (S)-9,10-difluoro-6-((((3-methoxypyridin-4-yl)methyl)(1-(pyrazin-2-yl)piperidin-3-yl)amino)methyl)-2,3-dihydro-7H-[1,4]oxazino[2,3,4-ij]quinolin-7-one]"
6,1.2,"O=c1c(CN(Cc2ccncc2F)[C@H]2CCCN(c3cnccn3)C2)cn2c3c(c(F)c(F)cc13)OCC2 [Compound 87, (S)-9,10-difluoro-6-((((3-fluoropyridin-4-yl)methyl)(1-(pyrazin-2-yl)piperidin-3-yl)amino)methyl)-2,3-dihydro-7H-[1,4]oxazino[2,3,4-ij]quinolin-7-one]"
7,0.8,"COC(=O)c1cc(CN(Cc2cn3c4c(c(F)c(F)cc4c2=O)OCC3)[C@H]2CCCN(c3cnccn3)C2)ccn1 [Compound 88, methyl (S)-4-((((9,10-difluoro-7-oxo-2,3-dihydro-7H-[1,4]oxazino[2,3,4-ij]quinolin-6-yl)methyl)(1-(pyrazin-2-yl)piperidin-3-yl)amino)methyl)picolinate]"
